Results from patent publication US20230085307A1, “PYRIDAZINONE COMPOUND AND HERBICIDE” (NISSAN CHEMICAL CORPORATION, priority 2019, published 2023).

Legend:
[1] = tested on: southern crabgrass; assay: Test Example 4: herbicidal effect by soil treatment (Table 19, symbol F); type: in vivo, southern crabgrass (Digitaria ciliaris); settings: amount of applied herbicide 320 g/ha
Summary of the method: (§1)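 Emulsion of test compound, water-diluted to predetermined amount, sprayed on soil after sowing (seed depth ~1.5 cm, sterilized diluvial soil). Greenhouse, 25–30° C. Effect graded at three weeks post-spray.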

[2] = tested on: barnyard grass; assay: Test Example 5: herbicidal effect by foliage application, plastic box (Table 20, symbol H); type: in vivo, barnyard grass (Echinochloa crus-galli); settings: foliage application, 320 g/ha, three weeks after application
Summary of the method: (§2)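 Post-emergence foliar test in sterilized diluvial soil. Compound applied as water-diluted emulsion at a predetermined rate to 14-day-old plants; evaluation at three weeks.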

[3] = tested on: Japanese bulrush; assay: Test Example 1: herbicidal activity, application before weed generation under submerged conditions (Table 16, symbol B); type: in vivo, Japanese bulrush (Schoenoplectus juncoides); settings: amount of applied herbicide 320 g/ha
Summary of the method: (§3)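 Submerged Wagner pots (alluvial soil, 4 cm water) sown with weed seeds and planted with 2.5-leaf rice seedlings; emulsifiable concentrate diluted in water applied to water surface on sowing day. Held in greenhouse at 25-30 °C; injury scored 0-5 by herbicidal rate after three weeks.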

[4] = tested on: blackgrass; assay: Test Example 5: herbicidal effect by foliage application, plastic box (Table 20, symbol J); type: in vivo, blackgrass (Alopecurus myosuroides); settings: foliage application, 320 g/ha, three weeks after application
Summary of the method: as §2

[5] = tested on: Italian ryegrass; assay: Test Example 4: herbicidal effect by soil treatment (Table 19, symbol K); type: in vivo, Italian ryegrass (Lolium multiflorum); settings: amount of applied herbicide 320 g/ha
Summary of the method: as §1

[6] = tested on: green foxtail; assay: Test Example 5: herbicidal effect by foliage application, plastic box (Table 20, symbol G); type: in vivo, green foxtail (Setaria viridis); settings: foliage application, 320 g/ha, three weeks after application
Summary of the method: as §2

[7] = tested on: late watergrass; assay: Test Example 1: herbicidal activity, application before weed generation under submerged conditions (Table 16, symbol A); type: in vivo, late watergrass (Echinochloa oryzicola); settings: amount of applied herbicide 320 g/ha
Summary of the method: as §3

[8] = tested on: southern crabgrass; assay: Test Example 5: herbicidal effect by foliage application, plastic box (Table 20, symbol F); type: in vivo, southern crabgrass (Digitaria ciliaris); settings: foliage application, 320 g/ha, three weeks after application
Summary of the method: as §2

[9] = tested on: windgrass; assay: Test Example 5: herbicidal effect by foliage application, plastic box (Table 20, symbol L); type: in vivo, windgrass (Apera spica-venti); settings: foliage application, 320 g/ha, three weeks after application
Summary of the method: as §2

[10] = tested on: green foxtail; assay: Test Example 4: herbicidal effect by soil treatment (Table 19, symbol G); type: in vivo, green foxtail (Setaria viridis); settings: amount of applied herbicide 320 g/ha
Summary of the method: as §1

[11] = tested on: velvetleaf; assay: Test Example 4: herbicidal effect by soil treatment (Table 19, symbol M); type: in vivo, velvetleaf (Abutilon theophrasti); settings: amount of applied herbicide 320 g/ha
Summary of the method: as §1

[12] = tested on: velvetleaf; assay: Test Example 5: herbicidal effect by foliage application, plastic box (Table 20, symbol M); type: in vivo, velvetleaf (Abutilon theophrasti); settings: foliage application, 320 g/ha, three weeks after application
Summary of the method: as §2

[13] = tested on: wild oat; assay: Test Example 5: herbicidal effect by foliage application, plastic box (Table 20, symbol I); type: in vivo, wild oat (Avena fatua); settings: foliage application, 320 g/ha, three weeks after application
Summary of the method: as §2

[14] = tested on: windgrass; assay: Test Example 4: herbicidal effect by soil treatment (Table 19, symbol L); type: in vivo, windgrass (Apera spica-venti); settings: amount of applied herbicide 320 g/ha
Summary of the method: as §1

[15] = tested on: persian speedwell; assay: Test Example 4: herbicidal effect by soil treatment (Table 19, symbol R); type: in vivo, Persian speedwell (Veronica persica); settings: amount of applied herbicide 320 g/ha
Summary of the method: as §1

[16] = tested on: rice flat sedge; assay: Test Example 3: herbicidal effect by foliage application, Wagner pot (Table 18, symbol E); type: in vivo, rice flat sedge (Cyperus iria); settings: amount of applied herbicide 320 g/ha
Summary of the method: (§4)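 Plants were sown in alluvial soil held under 0.1–0.5 cm standing water and grown 14 days in a greenhouse at 25–30 °C. An emulsifiable formulation, water-diluted to the set dose, was then sprayed onto the foliage, and effects were scored three weeks later using previously defined criteria.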

[17] = tested on: barnyard grass; assay: Test Example 3: herbicidal effect by foliage application, Wagner pot (Table 18, symbol H); type: in vivo, barnyard grass (Echinochloa crus-galli); settings: amount of applied herbicide 320 g/ha
Summary of the method: as §4

SMILES	F: southern crabgrass, herbicidal effect grade [1]	herbicidal effect on barnyard grass (H) [2]	Herbicidal effect, B: Japanese bulrush [3]	herbicidal effect on blackgrass (J) [4]	K: Italian ryegrass, herbicidal effect grade [5]	herbicidal effect on green foxtail (G) [6]	Herbicidal effect, A: late watergrass [7]	herbicidal effect on southern crabgrass (F) [8]	herbicidal effect on windgrass (L) [9]	G: green foxtail, herbicidal effect grade [10]	M: velvetleaf, herbicidal effect grade [11]	herbicidal effect on velvetleaf (M) [12]	herbicidal effect on wild oat (I) [13]	L: windgrass, herbicidal effect grade [14]	R: persian speedwell, herbicidal effect grade [15]	Herbicidal effect on E (rice flat sedge), foliage application [16]	Herbicidal effect on H (barnyard grass), foliage application [17]
C=CCOc1ccc(-c2oc3ccccc3c2-c2c(O)c(C)nn(C)c2=O)cc1 [8-004]	4 (Herbicidal rate of 70% or more and less than 90%)	3 (Herbicidal rate of 40% or more and less than 70%)	5 (Herbicidal rate of 90% or more (almost completely withered))	3 (Herbicidal rate of 40% or more and less than 70%)	4 (Herbicidal rate of 70% or more and less than 90%)	3 (Herbicidal rate of 40% or more and less than 70%)	5 (Herbicidal rate of 90% or more (almost completely withered))	4 (Herbicidal rate of 70% or more and less than 90%)	4 (Herbicidal rate of 70% or more and less than 90%)	3 (Herbicidal rate of 40% or more and less than 70%)	2 (Herbicidal rate of 20% or more and less than 40%)	2 (Herbicidal rate of 20% or more and less than 40%)	3 (Herbicidal rate of 40% or more and less than 70%)	0 (Herbicidal rate of 5% or less (almost no effect))	3 (Herbicidal rate of 40% or more and less than 70%)	4 (Herbicidal rate of 70% or more and less than 90%)	5 (Herbicidal rate of 90% or more (almost completely withered))
Cc1ccc2oc(-c3ccc4c(c3)OCCO4)c(-c3c(O)c(C)nn(C)c3=O)c2c1 [9-012]	2 (Herbicidal rate of 20% or more and less than 40%)	3 (Herbicidal rate of 40% or more and less than 70%)	5 (Herbicidal rate of 90% or more (almost completely withered))	0 (Herbicidal rate of 5% or less (almost no effect))	4 (Herbicidal rate of 70% or more and less than 90%)	2 (Herbicidal rate of 20% or more and less than 40%)	4 (Herbicidal rate of 70% or more and less than 90%)	3 (Herbicidal rate of 40% or more and less than 70%)	2 (Herbicidal rate of 20% or more and less than 40%)	3 (Herbicidal rate of 40% or more and less than 70%)	2 (Herbicidal rate of 20% or more and less than 40%)	5 (Herbicidal rate of 90% or more (almost completely withered))	0 (Herbicidal rate of 5% or less (almost no effect))	0 (Herbicidal rate of 5% or less (almost no effect))	4 (Herbicidal rate of 70% or more and less than 90%)	5 (Herbicidal rate of 90% or more (almost completely withered))	4 (Herbicidal rate of 70% or more and less than 90%)
CCCC(=O)Oc1c(C)nn(C)c(=O)c1-c1c(-c2ccc3c(c2)OCCO3)oc2ccc(C)cc12 [9-013]	4 (Herbicidal rate of 70% or more and less than 90%)	0 (Herbicidal rate of 5% or less (almost no effect))	4 (Herbicidal rate of 70% or more and less than 90%)	0 (Herbicidal rate of 5% or less (almost no effect))	0 (Herbicidal rate of 5% or less (almost no effect))	0 (Herbicidal rate of 5% or less (almost no effect))	3 (Herbicidal rate of 40% or more and less than 70%)	0 (Herbicidal rate of 5% or less (almost no effect))	0 (Herbicidal rate of 5% or less (almost no effect))	3 (Herbicidal rate of 40% or more and less than 70%)	2 (Herbicidal rate of 20% or more and less than 40%)	5 (Herbicidal rate of 90% or more (almost completely withered))	0 (Herbicidal rate of 5% or less (almost no effect))	0 (Herbicidal rate of 5% or less (almost no effect))	0 (Herbicidal rate of 5% or less (almost no effect))	3 (Herbicidal rate of 40% or more and less than 70%)	1 (Herbicidal rate of 5% or more and less than 20%)
Cc1nn(C)c(=O)c(-c2c(-c3ccc(OCC(C)C)cc3)oc3ccc(F)cc23)c1O [9-027]	5 (Herbicidal rate of 90% or more (almost completely withered))	5 (Herbicidal rate of 90% or more (almost completely withered))	5 (Herbicidal rate of 90% or more (almost completely withered))	5 (Herbicidal rate of 90% or more (almost completely withered))	4 (Herbicidal rate of 70% or more and less than 90%)	5 (Herbicidal rate of 90% or more (almost completely withered))	5 (Herbicidal rate of 90% or more (almost completely withered))	5 (Herbicidal rate of 90% or more (almost completely withered))	5 (Herbicidal rate of 90% or more (almost completely withered))	5 (Herbicidal rate of 90% or more (almost completely withered))	5 (Herbicidal rate of 90% or more (almost completely withered))	5 (Herbicidal rate of 90% or more (almost completely withered))	4 (Herbicidal rate of 70% or more and less than 90%)	4 (Herbicidal rate of 70% or more and less than 90%)	5 (Herbicidal rate of 90% or more (almost completely withered))	5 (Herbicidal rate of 90% or more (almost completely withered))	5 (Herbicidal rate of 90% or more (almost completely withered))
